# According to publication PMC8201479, “Trisubstituted Pyrrolinones as Small-Molecule Inhibitors Disrupting the Protein–RNA Interaction of LIN28 and Let-7” (ACS Medicinal Chemistry Letters, 2021):
# Like-named read-outs stand apart in the source and are kept apart here.
# T1: LIN28–let-7 interaction (Homo sapiens, UniProt Q9H9Z2)
# T1 construct: Purified LIN28A (residues 16–187) was incubated at a concentration of 200 nM; His-tag (cleaved yes); made in house; host or cells: Escherichia coli BL21(DE3)
# T1 sequence (Q9H9Z2 16-187): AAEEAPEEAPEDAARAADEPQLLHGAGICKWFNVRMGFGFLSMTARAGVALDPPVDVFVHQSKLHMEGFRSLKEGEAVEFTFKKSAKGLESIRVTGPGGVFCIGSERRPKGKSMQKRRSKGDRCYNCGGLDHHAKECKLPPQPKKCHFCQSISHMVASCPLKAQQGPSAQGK
# T2: LIN28–let-7 complex (Homo sapiens, UniProt Q9H9Z2)
# T2 construct: Purified LIN28A (residues 16–187) was incubated at a concentration of 200 nM; His-tag (cleaved yes); made in house; host or cells: Escherichia coli BL21(DE3)
# T2 sequence (Q9H9Z2 16-187): T1 sequence (Q9H9Z2 16-187)
# T3: LIN28A (16-187), untagged (human, UniProt Q9H9Z2 16-187)
# T3 sequence: T1 sequence (Q9H9Z2 16-187)
# Assays:
# LIN28–let-7 interaction [1] = molecular target: T1, LIN28–let-7 interaction; test: Fluorescence polarization (FP) assay, LIN28A (residues 16–187) and FAM-labeled preE-let-7f-1; format: binding; conditions: for IC50: Table 1, quadruplicate, eight concentrations, extrapolated based on the observed IC50 curves, read-out: IC50, LIN28–let-7 inhibitory activity; for FP, Average (mP): raw data Table S3, four replicates
# LIN28–let-7 interaction [2] = molecular target: T1, LIN28–let-7 interaction; test: as above; format: binding
# Procedure: Protein expression and purification.
# 19 vector and overexpressed in Escherichia coli BL21(DE3). The culture was incubated at 37 °C until
# the absorbance at 600 nm (OD600) reached 0.5–0.7. IPTG was added to a final concentration of
# 300 µM, and overnight induction was performed at 18 °C. Cells were harvested by centrifugation.
# The bacterial pellet was resuspended in lysis buffer (50 mM NaH2PO4, pH 7.5, 300 mM NaCl,
# 0.1 mM PMSF) and lysed using a Microfluidizer (Microfluidics) . A fresh portion of 0.1 mM PMSF
# and Triton X-100 (1% final concentration) were added. The lysate was cleared by ultra centrifugation
# at 30000 xg and 4 °C for 1 h. The protein purification was performed using immobilized nickel
# 300 mM NaCl and 5 % glycerol. Gradient elution was performed with a maximum of 0.5 M imidazole.
# Subsequently, the affinity tag was cleaved using His6 -TEV-protease and the protease and unspecific
# binders were eliminated by a second nickel affinity chromatography. After protein concentration
# LIN28A containing fractions were concentrated and applied to a High Load Superdex 75 pg 16/600
# column (GE Healthcare) with gel-filtration buffer (30 mM NaH2PO4, pH 7.5, 50 mM NaCl, 5%
# glycerol, 2 mM β-ME). The purified protein was concentrated and stored at -80 °C until further
# Fluorescence polarization. The fluorescence polarization assay was performed in black low volume
# IC50 measurements were performed with three technical
# minutes with compound concentrations ranging from 0.3 nM to 100 µM in FP assay buffer (20 mM
# Tris, pH 7, 100 mM NaCl, 5 mM MgCl2, 2 mM glutathione (reduced), 0.1 % NP-40). Subsequently,
# FAM-labeled preE-let-7f-1 (mus musculus) ([…]-
# FAM, synthesized by IDT) was added to a final concentration of 2 nM. Fluorescence polarization
# (§1) was detected after incubation at room temperature using a TECAN Spark plate reader. Half maximal
# inhibitory concentrations (IC50) were determined using GraphPad Prism 7. […]
# LIN28–let-7 complex = molecular target: T2, LIN28–let-7 complex; test: Electrophoretic mobility shift assay (EMSA); format: binding; conditions: compound concentrations up to 75 µM
# Procedure: as §1
# inhibitory concentrations (IC50) were determined using GraphPad Prism 7.
# Compound screening. High throughput screening was performed in low volume 384 well plates
# (Corning 4514) with 30 µM compound, 40 nM LIN28A, and 2 nM preE-let-7f-1-FAM in FP assay
# buffer. Compounds were transferred with an ECHO 520 liquid handler and protein and RNA were
# added with a multidrop dispenser. Protein and RNA were added stepwise with a 30 min incubation
# period in between. FP was detected after a final incubation of 15 min with an Envision plate reader
# and fluorescence was measured with a Paradigm plate reader. A reaction without LIN28 served as a
# negative control and one without compound was used as a positive control. The software Quattro
# Workflow (Quattro Research GmbH) was used for the analysis of screening data.
# Electrophoretic mobility shift assay. EMSA was used as a secondary assay to validate FP-assay hit
# molecules. Purified LIN28A (residues 16–187) was incubated with compound and 5 U recombinant
# ribonuclease inhibitor (Takara Bio) in EMSA reaction buffer (50 mM Tris (pH 7.5), 100 mM NaCl,
# 10 mM β-mercaptoethanol, 50 µM ZnCl2, 2 % DMSO, 0.01 % Tween 20, 12 % glycerol) for 2 hours
# at room temperature. Subsequently, preE-let-7f-1-Cy3 (mus musculus) (GGGGUAGUGAUUUUAC
# CCUGUUUAGGAGAU-Cy3, purchased from IDT) was added to a final concentration of 5 nM and
# a reaction volume of 50 µL. The final concentration of LIN28A was 10 nM and compound
# concentrations up to 75 µM were used. The reaction mixtures were incubated for a further 15 minutes
# and 10 µL loading dye (40 % glycerol, 1.5x TAE) was added. 10 µL of each reaction was separated
# in an 8 % polyacrylamide TAE gel at 4 °C and 220 V for 1 h using 0.25x TAE as running buffer. Cy3
# fluorescence was detected with a ChemiDoc M P (Bio-Rad) and 2 minutes of exposure time.
# Thermal shift assay. Thermal stability of the cold shock domain construct LIN28 A (residues 16–
# 126) with and without compound was monitored using a NanoTemper Prometheus NT.48 nano -
# LIN28 [3] = system: LIN28; design: method as in PMID 27668966; conditions: reported value; cited from earlier work
# LIN28 [4] = system: LIN28; design: method as in PMID 27548809; conditions: reported value; read-out: IC50 (ELISA); cited from earlier work
# [5] = molecular target: T3, LIN28A (16-187), untagged; test: competition (fluorescence polarization); competes with 2 nM FAM-preE-let-7f-1; FP: 20 mM Tris pH 7, 100 mM NaCl, 5 mM MgCl2, 2 mM GSH, 0.1% NP-40 (200 nM LIN28A, 2 nM RNA in IC50 assays); EMSA: 50 mM Tris pH 7.5, 100 mM NaCl, 10 mM beta-ME, 50 uM ZnCl2, 2% DMSO, 0.01% Tween 20, 12% glycerol, 2 h, room temperature; conditions: protein: recombinant; tags: none (His-tag cleaved by TEV); stem loop
molecule,measurement,setting,value
O=C(O)c1cccc(N2C(=O)C(O)=C(C(=O)c3ccc(Br)cc3)C2c2ccc(-c3nccs3)cc2)c1 (centres unmarked) [C903],IC50,LIN28–let-7 interaction [1]; starting from 30 μM,> 100 µM
same,activity in the FP assay,LIN28–let-7 interaction [2],FP-inactive
same,inhibition of the LIN28–let-7 complex in EMSA,LIN28–let-7 complex,did not show activity
"CC1(C)Oc2cc(N3CCN(C(=O)OCc4ccccc4)CC3)c([N+](=O)[O-])cc2-c2c1cnn2-c1ccc(C(=O)O)cc1 [SB1301, reference compound]",IC50,LIN28 [3],4 µM
same,IC50,"LIN28–let-7 interaction [2]; text and figures, C-labels = library sample, PH-labels = in-house resynthesized, read-out: IC50 in the FP assay",27 µM
CC(=O)N(C)c1cccc(-c2ccc3nnc(C)n3n2)c1 [compound 1632],IC50,LIN28 [4],8 µM
O=C(O)c1ccc(C2C(C(=O)c3ccccc3)=C(O)C(=O)N2c2ccc(O)cc2)cc1 (centres unmarked) [PH-36],IC50,LIN28–let-7 interaction [1]; starting from a maximum of 60 μM,> 100 µM
same,"FP, Average (mP)",LIN28–let-7 interaction [1]; 0.041 μM compound,115.00 mP
same,"FP, Average (mP)",LIN28–let-7 interaction [1]; 0.123 μM compound,116.25 mP
same,"FP, Average (mP)",LIN28–let-7 interaction [1]; 0.368 μM compound,113.50 mP
same,"FP, Average (mP)",LIN28–let-7 interaction [1]; 1.103 μM compound,112.00 mP
same,"FP, Average (mP)",LIN28–let-7 interaction [1]; 3.125 μM compound,104.83 mP
same,"FP, Average (mP)",LIN28–let-7 interaction [1]; 9.375 μM compound,108.50 mP
same,"FP, Average (mP)",LIN28–let-7 interaction [1]; 29.688 μM compound,96.03 mP
same,"FP, Average (mP)",LIN28–let-7 interaction [1]; 59.375 μM compound,79.35 mP
same,activity in the FP assay,LIN28–let-7 interaction [2],inactive
"GGGGUAGUGAUUUUACCCUGUUUAGGAGAU (structured_RNA) [preE-let-7f-1, unlabeled]",IC50,[5],55 nM
